The assay has as its target T1, HDAC6 enzyme (Homo sapiens, UniProt Q9UBN7).
T1 construct: transducing full length HDAC6 gene into Sf-9 insect cells; GST; purchased SignalChem; host or cells: Sf-9 insect cells
T1 sequence (Q9UBN7 1-1215): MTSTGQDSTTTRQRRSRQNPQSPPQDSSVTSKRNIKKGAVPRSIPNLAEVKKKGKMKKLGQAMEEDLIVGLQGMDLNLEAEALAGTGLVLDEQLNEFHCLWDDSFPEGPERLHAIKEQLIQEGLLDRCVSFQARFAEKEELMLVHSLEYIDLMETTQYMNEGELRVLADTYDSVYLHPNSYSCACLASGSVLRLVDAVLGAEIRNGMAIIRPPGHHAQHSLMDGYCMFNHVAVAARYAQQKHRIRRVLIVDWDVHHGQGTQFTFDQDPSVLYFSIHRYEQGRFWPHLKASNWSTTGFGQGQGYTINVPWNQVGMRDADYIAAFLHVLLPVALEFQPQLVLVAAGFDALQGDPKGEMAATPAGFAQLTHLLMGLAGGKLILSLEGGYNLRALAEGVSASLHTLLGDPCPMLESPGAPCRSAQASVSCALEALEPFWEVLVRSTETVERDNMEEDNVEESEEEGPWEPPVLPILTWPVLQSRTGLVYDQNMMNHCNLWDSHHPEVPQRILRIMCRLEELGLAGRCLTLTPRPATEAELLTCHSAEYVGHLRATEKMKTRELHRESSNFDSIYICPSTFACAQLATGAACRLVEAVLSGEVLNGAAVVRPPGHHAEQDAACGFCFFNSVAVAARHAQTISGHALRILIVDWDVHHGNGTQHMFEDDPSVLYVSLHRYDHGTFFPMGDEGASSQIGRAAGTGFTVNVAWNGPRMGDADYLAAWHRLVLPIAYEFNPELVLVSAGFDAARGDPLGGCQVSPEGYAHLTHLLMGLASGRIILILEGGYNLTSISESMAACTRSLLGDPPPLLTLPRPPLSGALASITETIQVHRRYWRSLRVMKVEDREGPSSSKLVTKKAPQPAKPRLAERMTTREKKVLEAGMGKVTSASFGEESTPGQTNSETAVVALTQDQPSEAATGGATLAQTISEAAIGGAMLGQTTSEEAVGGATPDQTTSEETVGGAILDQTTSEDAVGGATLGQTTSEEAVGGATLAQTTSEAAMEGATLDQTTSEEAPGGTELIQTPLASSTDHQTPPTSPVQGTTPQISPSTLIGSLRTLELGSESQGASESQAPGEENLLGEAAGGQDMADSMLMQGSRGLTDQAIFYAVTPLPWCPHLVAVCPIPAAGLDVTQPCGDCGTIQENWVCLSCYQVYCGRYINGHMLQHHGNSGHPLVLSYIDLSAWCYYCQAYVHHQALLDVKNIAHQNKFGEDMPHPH
Description: HDAC6 enzyme inhibitory activity (HDAC-Glo I/II Assay kit). The format is biochemical. The settings on record: 10 μM; wells without enzyme = 100% inhibition; read-out: HDAC6 inhibitory rate (%) (10 μM). An outline of the steps:
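Inhibition is calculated as relative activity, taking luminescence in enzyme-free wells as complete inhibition. The enzyme, full-length and GST-purified after Sf-9 expression, was exposed to compound for 60 min at room temperature before a 20 min HDAC-Glo reaction.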

Turning to `O=C1c2cc(-c3nnc(C(F)F)o3)ccc2CN1c1ccccc1-c1ccccn1` [Example 238, 6-(5-(difluoromethyl)-1,3,4-oxadiazol-2-yl)-2-(2-(pyridin-2-yl)phenyl)isoindolin-1-one], the inhibition at 10 µM amounted to 100%. Consider `O=C1c2ccc(-c3nnc(C(F)F)o3)cc2C(=O)N1C[C@H]1COCCN1S(=O)(=O)C1CC1` [Example 239, 2-(((3S)-4-(cyclopropylsulfonyl)-morpholin-3-yl)methyl)-5-(5-(difluoromethyl)-1,3,4-oxadiazol-2-yl)-1H-isoindole-1,3(2H)-dione], for which the inhibition at 10 µM was 99%.

Take `O=C1c2cc(-c3nnc(C(F)F)o3)cnc2CN1c1ccccc1Br` [Example 240, 6-(2-bromophenyl)-3-(5-(difluoro-methyl)-1,3,4-oxadiazol-2-yl)-6,7-dihydro-5H-pyrrolo[3,4-b]-pyridin-5-one]: the inhibition at 10 µM is 98%. As to `O=C1c2cc(-c3nnc(C(F)F)o3)ccc2CN1c1ccc(Cl)cc1Br` [Example 241, 2-(2-bromo-4-chlorophenyl)-6-(5-(difluoromethyl)-1,3,4-oxadiazol-2-yl)isoindolin-1-one], the inhibition at 10 µM was found to be 91%.

`O=C1c2cc(-c3nnc(C(F)F)o3)cc(F)c2CN1[C@@H]1CCCC[C@H]1NS(=O)(=O)C1CC1` [Example 242, N-((1R,2R)-2-(6-(5-(difluoro-methyl)-1,3,4-oxadiazol-2-yl)-4-fluoro-1-oxo-1,3-dihydro-2H-isoindol-2-yl)cyclohexyl)-cyclopropanesulfonamide]: the inhibition at 10 µM was determined as 101%. For the molecule `N#Cc1cccc(-c2ccccc2N2Cc3ncc(-c4nnc(C(F)F)o4)cc3C2=O)c1` [Example 243, 2′-(3-(5-(difluoromethyl)-1,3,4-oxadiazol-2-yl)-5-oxo-5,7-dihydro-6H-pyrrolo[3,4-b]pyridin-6-yl)biphenyl-3-carbonitrile], the inhibition at 10 µM came to 99%. The same measure for `O=C1c2cc(-c3nnc(C(F)F)o3)cc(F)c2CN1[C@@H]1CCCC[C@H]1NS(=O)(=O)CC(F)(F)F` [Example 244]: 101%; for `O=C1c2cc(-c3nnc(C(F)F)o3)ccc2CN1[C@@H]1CCCC[C@H]1NS(=O)(=O)CC(F)(F)F` [Example 245, N-((1R,2R)-2-(6-(5-(difluoro-methyl)-1,3,4-oxadiazol-2-yl)-1-oxo-1,3-dihydro-2H-isoindol-2-yl)cyclohexyl)-2,2,2-trifluoro-ethanesulfonamide]: 101%; for `O=C1c2cc(-c3nnc(C(F)F)o3)ccc2CN1[C@@H]1CCCC[C@H]1NS(=O)(=O)C1CC1` [Example 246, N-((1R,2R)-2-(6-(5-(difluoro-methyl)-1,3,4-oxadiazol-2-yl)-1-oxo-1,3-dihydro-2H-isoindol-2-yl)cyclohexyl)cyclopropane-sulfonamide]: 100%. With `O=C1c2cc(-c3nnc(C(F)F)o3)ccc2CN1c1ccc(F)cc1Br` [Example 247, 2-(2-bromo-4-fluorophenyl)-6-(5-(difluoromethyl)-1,3,4-oxadiazol-2-yl)isoindolin-1-one], the inhibition at 10 µM turned out to be 94%. As to `N#Cc1cccc(-c2cc(Cl)ccc2N2Cc3ccc(-c4nnc(C(F)F)o4)cc3C2=O)c1` [Example 248, 5′-chloro-2′-(6-(5-(difluoro-methyl)-1,3,4-oxadiazol-2-yl)-1-oxo-1,3-dihydro-2H-isoindol-2-yl)biphenyl-3-carbonitrile], the inhibition at 10 µM worked out at 100%.

For the molecule `N#Cc1cccc(-c2cc(F)ccc2N2Cc3ccc(-c4nnc(C(F)F)o4)cc3C2=O)c1` [Example 249, 2′-(6-(5-(difluoromethyl)-1,3,4-oxadiazol-2-yl)-1-oxo-1,3-dihydro-2H-isoindol-2-yl)-5′-fluorobiphenyl-3-carbonitrile], the inhibition at 10 µM stood at 100%.

For the molecule `Cn1cc(Br)c(N2Cc3ccc(-c4nnc(C(F)F)o4)cc3C2=O)n1` [Example 250, 2-(4-bromo-1-methyl-1H-pyrazol-3-yl)-6-(5-(difluoro-methyl)-1,3,4-oxadiazol-2-yl)isoindolin-1-one], the inhibition at 10 µM amounted to 95%.

Consider `O=C1c2cc(-c3nnc(C(F)F)o3)cc(F)c2CN1C[C@H]1COCCN1S(=O)(=O)c1ccccc1F` [Example 251, 6-(5-(difluoromethyl)-1,3,4-oxadiazol-2-yl)-4-fluoro-2-(((3S)-4-((2-fluorophenyl)-sulfonyl)morpholin-3-yl)-methyl)isoindolin-1-one], for which the inhibition at 10 µM was found to be 100%. For the molecule `O=C1c2cc(-c3nnc(C(F)F)o3)cc(F)c2CN1C[C@H]1COCCN1S(=O)(=O)c1ccc(F)cc1` [Example 252, 6-(5-(difluoromethyl)-1,3,4-oxadiazol-2-yl)-4-fluoro-2-(((3S)-4-((4-fluorophenyl)-sulfonyl)morpholin-3-yl)-methyl)isoindolin-1-one], the inhibition at 10 µM was determined as 99%. Take `O=C1c2cc(-c3nnc(C(F)F)o3)ccc2CN1c1cc(Cl)ccc1Br` [Example 253, 2-(2-bromo-5-chlorophenyl)-6-(5-(difluoromethyl)-1,3,4-oxadiazol-2-yl)isoindolin-1-one]: the inhibition at 10 µM was found to be 72%. In the case of `O=C(O[C@@H]1CCCC[C@H]1N1Cc2ccc(-c3nnc(C(F)F)o3)cc2C1=O)N1CCCCC1` [Example 254, (1R,2R)-2-(6-(5-(difluoro-methyl)-1,3,4-oxadiazol-2-yl)-1-oxo-1,3-dihydro-2H-isoindol-2-yl)cyclohexyl piperidine-1-carboxylate], the inhibition at 10 µM was found to be 102%.

Regarding `CC(C)(C)OC(=O)N[C@H]1CCCC[C@H]1N1Cc2ccc(-c3nnc(C(F)F)o3)cc2C1=O` [Example 255, tert-butyl ((1S,2R)-2-(6-(5-(difluoromethyl)-1,3,4-oxadiazol-2-yl)-1-oxo-1,3-dihydro-2H-isoindol-2-yl)cyclohexyl)carbamate], the inhibition at 10 µM was 100%.

As to `N[C@H]1CCCC[C@H]1N1Cc2ccc(-c3nnc(C(F)F)o3)cc2C1=O` [Example 256], the inhibition at 10 µM came to 91%.

With `O=C1c2cc(-c3nnc(C(F)F)o3)ccc2CN1[C@@H]1CCCC[C@H]1NCC(F)(F)F` [Example 257, 6-(5-(difluoromethyl)-1,3,4-oxadiazol-2-yl)-2-((1R,2R)-2-((2,2,2-trifluoroethyl)amino)-cyclohexyl)isoindolin-1-one], the inhibition at 10 µM came to 101%.

Turning to `CC(F)(F)C(=O)N[C@H]1CCCC[C@H]1N1Cc2ccc(-c3nnc(C(F)F)o3)cc2C1=O` [Example 258, N-((1S,2R)-2-(6-(5-(difluoro-methyl)-1,3,4-oxadiazol-2-yl)-1-oxo-1,3-dihydro-2H-isoindol-2-yl)cyclohexyl)-2,2-difluoro-propanamide], the inhibition at 10 µM was 101%. With `O=C1c2cc(-c3nnc(C(F)F)o3)ccc2CN1[C@@H]1CCCC[C@@H]1NC(=O)C1(C(F)(F)F)CC1` [Example 259, N-((1S,2R)-2-(6-(5-(difluoro-methyl)-1,3,4-oxadiazol-2-yl)-1-oxo-1,3-dihydro-2H-isoindol-2-yl)cyclohexyl)-1-(trifluoromethyl)cyclopro-panecarboxamide] the figure was 101%; with `CC(C)(C(=O)N[C@H]1CCCC[C@H]1N1Cc2ccc(-c3nnc(C(F)F)o3)cc2C1=O)C(F)(F)F` [Example 260, N-((1S,2R)-2-(6-(5-(difluoro-methyl)-1,3,4-oxadiazol-2-yl)-1-oxo-1,3-dihydro-2H-isoindol-2-yl)cyclohexyl)-3,3,3-trifluoro-2,2-dimethyl-propanamide], 98%.

Source of the values: patent US10435399B2, “HDAC6 inhibitory heterocyclic compound” (TAKEDA PHARMACEUTICAL COMPANY LIMITED, priority 2017, dated 2019).
